Assay [1] concerns Staphylococcus aureus 39881 (Methicillin-resistant). Put plainly: Mouse protection test, S. aureus 39881 (methicillin-resistant) infection. The class given is in vivo, ICR mice; Staphylococcus aureus. The note with it: for Survivors/Total: two doses; for ED50: Staphylococcus aureus, 168 h, read-out: Protective Dose 50% (95% Confidence Limits); for Protective Dose 50% (95% Confidence Limits): 10080 min. How it is done: (§1) ICR mice, female, 18-20 grams each.
(§2) Solutions of Win 52,522 and Win 35,439 were prepared by dissolving the appropriate weight of drug in 0.3 to 0.4 ml of 1 N NaOH and then bringing the solutions to the desired volume with distilled water. Methicillin and vancomycin were dissolved directly in distilled water.
The culture was streaked onto three Brain Heart Infusion Agar plates and incubated 16 hours at 37° C. The cells were washed off each plate with five ml of saline and the cell suspension was shaken with glass beads for two minutes on a paint shaker. The suspension was diluted with saline so that a […] gave a 44% T reading on a B+L Spectronic 20 (650 nm) calibrated with saline. The stock suspension was diluted 1:24 (10 ml stock suspension+230 ml 5% mucin) to obtain the test inoculum containing 1.55×10^9 cells/ml.
(§3) Mice were inoculated intraperitoneally with 0.5 ml of the bacterial test inoculum.
Mice were medicated twice: at one-half and four hours postinfection. The drugs were administered by both subcutaneous (0.2 ml) and oral (0.5 ml) routes.
(§4) Deaths were recorded daily for seven days for all tests. Fifty percent protective dose values (PD50's) were calculated using probit analysis [SAS Users Guide: Statistics, 1982 Edition, SAS Institute, Inc., Cary, N.C.].

The test system of assay [2] is Gram-positive cocci. The assay is described as follows: In vitro antibacterial activity. The class given is cell-based, S. aureus, S. epidermidis and Streptococcus species. How it is done: (§5) Win 52,522 and Win 35,439 were solubilized in 0.1 ml of 0.5 N NaOH/mg of compound and diluted in sterile distilled water to 160 mcg/ml. Vancomycin and methicillin were solubilized in sterile distilled water to 1250 mcg/ml of base compound. The stock solutions were sterilized by filtration through membrane filters with a 0.45 μm pore size.
(§6) The bacterial cultures listed in Table I (hereinbelow) were grown overnight at 37° C. in MHB for all cultures except the Streptococcus strains. These were grown in BHI+10% NHS. The overnight broth cultures were adjusted to an optical density of 0.10 (650 nm, B L Spectronic 20) in sterile distilled water and subsequently diluted to 6.7×10^6 cells/ml in MHB or BHI+1% NHS.
Serial two-fold dilutions of the compound solutions were prepared in MHB (or in BHI+1% NHS for tests with Streptococci) and dispensed into 96-well microtiter trays in a volume of 0.1 ml/well using a Sandy Springs (Bellco Glass Co.) dispenser. The trays were then inoculated with 0.0015 ml of a suspension containing 6.7×10^6 cells/ml of the appropriate inoculum using a MIC-2000 inoculator (Dynatech Corp.) resulting in a final inoculum of approximately 1×10^4 cells/well or 1×10^5 cells/ml. The trays were incubated at 37° C. for 18-20 hours and the minimal inhibitory concentration (MIC), defined as the lowest concentration of compound to inhibit visible bacterial growth, was recorded. […]

Assay [3] concerns Staphylococcus aureus Smith. Put plainly: Mouse protection test, S. aureus Smith infection, multiple dose. The note with it: for ED50: Staphylococcus aureus, 168 h, read-out: Protective Dose 50% (95% Confidence Limits). The class given is in vivo, ICR mice; Staphylococcus aureus. The protocol:
as §1, §2
Two and one-half ml of pool were added to 247.5 ml of 5% gastric mucin to provide the test inoculum containing 2.1×10^4 cells/ml.
as §3
2. Multiple dose test--Mice were medicated subcutaneously (0.2 ml) or orally (0.5 ml) at the following times: six hours and one hour preinfection (infection at 2 pm) and twice a day (8 a.m. and 3:30 p.m.) for the next two successive days.
as §4

Assay [4] relates to P. aeruginosa. Put plainly: In vitro MIC/MBC summary (Table II). The class given is cell-based, Pseudomonas aeruginosa. How it is done:
as §5, §6
Serial two-fold dilutions of the compound solutions were prepared in MHB (or in BHI+1% NHS for tests with Streptococci) and dispensed into 96-well microtiter trays in a volume of 0.1 ml/well using a Sandy Springs (Bellco Glass Co.) dispenser. The trays were then inoculated with 0.0015 ml of a suspension containing 6.7×10^6 cells/ml of the appropriate inoculum using a MIC-2000 inoculator (Dynatech Corp.) resulting in a final inoculum of approximately 1×10^4 cells/well or 1×10^5 cells/ml. The trays were incubated at 37° C. for 18-20 hours and the minimal inhibitory concentration (MIC), defined as the lowest concentration of compound to inhibit visible bacterial growth, was recorded.
After the MIC values were recorded, the contents in the microtiter trays were thoroughly mixed on a Bellco Mini-orbital Shaker (Bellco Glass Co.) for 3 min. at a setting of 8. A portion (0.0015 ml) from each well was then transferred via an MIC-2000 inoculator to plates containing MHA or BHI agar+10% NHS. The plates were incubated at 37° C. for 18-20 hrs. The minimal bactericidal concentration (MBC), defined as the lowest concentration of compound that prevented the formation of a recognizable colony on the agar surface, was recorded.

Setting [5] is: sc, two doses one-half and four hours postinfection.
The mark [6] stands for this setting: po, two doses one-half and four hours postinfection.
The mark [7] stands for this setting: Pseudomonas aeruginosa, 5 P. aeruginosa strains.
Where [8] appears, read: Pseudomonas aeruginosa, 5 P. aeruginosa strains, read-out: MBC 50%.
Where [9] appears, read: Pseudomonas aeruginosa, 5 P. aeruginosa strains, read-out: MBC 90%.

Converted amounts (≈) assume the structure as drawn. Counter-ions that a name gives are not always drawn. Like-named read-outs stand apart in the source and are kept apart here.

The text below walks through data of patent US4698350A, “1-ethyl-6-fluoro-1,4-dihydro- 7-(2,6-dimethyl-4-pyridinyl)-4-oxo-3-quinolinecarboxylic acid and antibacterial use thereof” (Sterling Drug Inc., priority 1984, dated 1987).

On to `COc1cccc(OC)c1C(=O)N[C@@H]1C(=O)N2[C@@H]1SC(C)(C)[C@@H]2C(=O)O` [Methicillin, 6-(2,6-dimethoxybenzamido)penicillanic acid sodium salt], for which the Survivors/Total in assay [1] (25 mg/kg sc), in assay [1] (50 mg/kg sc) and in assay [1] (100 mg/kg sc) was 0/10 throughout. Further, in assay [1] (setting [5]), the ED50 was above 100 mg/kg. The bactericidal / bacteriostatic entry in assay [2] (Gram-positive cocci) is listed as “bactericidal”.
In the case of `CN[C@H](CC(C)C)C(=O)N[C@H]1C(=O)N[C@@H](CC(N)=O)C(=O)N[C@H]2C(=O)N[C@H]3C(=O)N[C@H](C(=O)N[C@H](C(=O)O)c4cc(O)cc(O)c4-c4cc3ccc4O)[C@H](O)c3ccc(c(Cl)c3)Oc3cc2cc(c3O[C@@H]2O[C@H](CO)[C@@H](O)[C@H](O)[C@H]2O[C@H]2C[C@](C)(N)[C@H](O)[C@H](C)O2)Oc2ccc(cc2Cl)[C@H]1O` [Vancomycin], the Survivors/Total in assay [1] (6.25 mg/kg sc) is 0/10; in assay [1] (12.5 mg/kg sc), 1/10; in assay [1] (25 mg/kg sc), 9/10; in assay [1] (50 mg/kg sc), 10/10. Moreover, the ED50 in assay [1] (sc) amounted to 17.7 mg/kg.
Usually MIC50 stands for an inhibitory concentration at the 50% level, which refers to growth in some studies and to a panel of isolates in others. Low values mean greater potency, high ones weaker potency. Usually MIC90 stands for the lowest concentration that inhibits either 90% of growth or 90% of the strains tested, depending on the study. Low values mean higher susceptibility, high ones lower susceptibility. As usually defined, the MBC is the smallest concentration meeting the test's criterion for killing. For the compound `CCn1cc(C(=O)O)c(=O)c2ccc(-c3cc(C)nc(C)c3)cc21` [Win 35,439, 1-ethyl-1,4-dihydro-7-(2,6-dimethyl-4-pyridinyl)-4-oxo-3-quinolinecarboxylic acid], the Survivors/Total in assay [1] (1.56 mg/kg po) is 1/10; in assay [1] (1.56 mg/kg sc), 0/10; in assay [1] (3.13 mg/kg po), 0/10; in assay [1] (3.13 mg/kg sc), 0/10; in assay [1] (6.25 mg/kg po) it was 3/10; in assay [1] (6.25 mg/kg sc) it was 9/10. Moreover, the Survivors/Total in assay [1] (12.5 mg/kg po) was 10/10; in assay [1] (12.5 mg/kg sc) it was 7/10; in assay [3] (3.13 mg/kg po), 0/10; in assay [3] (3.13 mg/kg sc) it was 1/10; in assay [3] (6.25 mg/kg po) it was 4/10; in assay [3] (6.25 mg/kg sc) it was 3/10. Also, the Survivors/Total in assay [3] (12.5 mg/kg po) is reported as 9/10; in assay [3] (12.5 mg/kg sc), 10/10; in assay [3] (25 mg/kg po), 10/10; in assay [3] (25 mg/kg sc) it was 10/10. In addition, the ED50 is 7.2 mg/kg in assay [1] (setting [6]), around 4.9 mg/kg in assay [1] (setting [5]), 7.2 mg/kg in assay [3] (po) and 7.1 mg/kg in assay [3] (sc). Besides, the MIC50 in assay [4] (setting [7]) amounted to 16 µg/mL (≈ 49.6 µM). The compound also returned an MIC90 in assay [4] (setting [7]) of 16 µg/mL (≈ 49.6 µM). For the same compound, the MBC in assay [4] (setting [8]) and in assay [4] (setting [9]) was above 16 µg/mL each time.
Broadly, the MIC is the least concentration at which growth counts as inhibited. The low end stands for greater potency, the high end for weaker potency. As for `CCn1cc(C(=O)O)c(=O)c2cc(F)c(-c3cc(C)nc(C)c3)cc21` [Win 52,522, 1-ethyl-6-fluoro-1,4-dihydro-7-(2,6-dimethyl-4-pyridinyl)-4-oxo-3-quinolinecarboxylic acid], the Survivors/Total in assay [1] (0.19 mg/kg po) is 0/10; in assay [1] (0.19 mg/kg sc), 0/10; in assay [1] (0.39 mg/kg po), 0/10; in assay [1] (0.39 mg/kg sc), 0/10; in assay [1] (0.78 mg/kg po), 1/10; in assay [1] (0.78 mg/kg sc) it was 2/10. Moreover, the Survivors/Total is 4/10 in assay [1] (1.56 mg/kg po); 10/10 in assay [1] (1.56 mg/kg sc); 10/10 in assay [1] (3.13 mg/kg po); 9/10 in assay [1] (3.13 mg/kg sc); 10/10 in assay [1] (6.25 mg/kg po); 10/10 in assay [1] (6.25 mg/kg sc). Moreover, the Survivors/Total in assay [3] (0.19 mg/kg po), in assay [3] (0.19 mg/kg sc), in assay [3] (0.39 mg/kg po), in assay [3] (0.39 mg/kg sc), in assay [3] (0.78 mg/kg po) and in assay [3] (0.78 mg/kg sc) was 0/10 in each case. In addition, the Survivors/Total in assay [3] (1.56 mg/kg po) was 2/10; in assay [3] (1.56 mg/kg sc), 4/10; in assay [3] (3.13 mg/kg po) it was 9/10; in assay [3] (3.13 mg/kg sc) it was 9/10; in assay [3] (6.25 mg/kg po) it was 10/10; in assay [3] (6.25 mg/kg sc), 10/10. For the same compound, the Survivors/Total in assay [3] (12.5 mg/kg po) and in assay [3] (12.5 mg/kg sc) was 10/10 each time. Further, the ED50 is 1.6 mg/kg in assay [1] (setting [6]), 1.1 mg/kg in assay [1] (setting [5]), 2.1 mg/kg in assay [3] (po) and 1.8 mg/kg in assay [3] (sc). Also, the “times more efficacious than methicillin” value in assay [1] (methicillin-resistant S. aureus infection in mice) is recorded as above 91 times. The “Protective Dose 50% (95% Confidence Limits)” value in assay [1] (setting [6]) is listed as 1.6(1.3-2.4) mg/kg; in assay [1] (setting [5]), 1.1(0.1-4.1) mg/kg. In assay [1] (sc), the “times more active than Win 35,439” value was determined as 4.5 times. Further, the “times more efficacious/active than vancomycin” value in assay [1] (sc) is 16 times. Also, the figures for the “times more efficient than Win 35,439” value in assay [3] (po) and in assay [3] (sc) were 3.4 times and 3.9 times, respectively. For the same compound, the MIC in assay [4] (setting [7]) is 4 to 16 µg/mL (≈ 11.8 to 47 µM). The compound also returned an MIC50 in assay [4] (setting [7]) of 16 µg/mL (≈ 47 µM). Further, the MIC90 in assay [4] (setting [7]) was 16 µg/mL (≈ 47 µM). The MBC in assay [4] (setting [8]) was 16 µg/mL (≈ 47 µM); in assay [4] (setting [9]) it was 16 µg/mL (≈ 47 µM); in assay [4] (Pseudomonas aeruginosa, 5 P. aeruginosa strains, read-out: MBC Range) it was 16 µg/mL (≈ 47 µM). Besides, in assay [4] (in vitro, P. aeruginosa), the “potency relative to Win 35,439” value was “similarly potent”. Further, in assay [2] (several Gram-positive cocci), the “times more potent in vitro than Win 35,439” value was 2-8 times.
